Results from PMC7273348, “Unraveling a Tangled Skein: Evolutionary Analysis of the Bacterial Gibberellin Biosynthetic Operon” (mSphere, 2020).

Target: T1, ReIDS2 (ReGGPS2) (Rhizobium etli, UniProt Q8KLD2)
T1 construct: gene RHE_PD00244; full-length ORF in pET101/D-TOPO, C-terminal 6xHis tag, E. coli BL21 Star
T1 sequence (Q8KLD2 1-309): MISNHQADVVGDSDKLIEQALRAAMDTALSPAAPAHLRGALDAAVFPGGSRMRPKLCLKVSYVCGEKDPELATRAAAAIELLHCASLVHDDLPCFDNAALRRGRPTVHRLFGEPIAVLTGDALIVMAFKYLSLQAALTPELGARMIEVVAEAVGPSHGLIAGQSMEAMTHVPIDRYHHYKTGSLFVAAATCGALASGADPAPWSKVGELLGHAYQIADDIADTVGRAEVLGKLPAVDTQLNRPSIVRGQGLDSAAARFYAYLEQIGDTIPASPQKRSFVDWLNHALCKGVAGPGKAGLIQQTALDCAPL
Assay: LC-MS/MS detection of GGPP product
Type: biochemical
Conditions: 50 uM IPP + 50 uM DMAPP; MOPSO pH 7.2, 10 mM MgCl2; 30 C, 2 h; main product GGPP

SMILES: CC(C)=CCOP(=O)(O)OP(=O)(O)O [DMAPP]
- LC-MS/MS detection of GGPP product: produced GGPP as its major product from the universal isoprenoid precursors IPP and DMAPP
